This note sets out measurements from publication PMC6301270 (MedChemComm, 2018).

The assay relates to T.b. brucei (strain 427) bloodstream form parasites. Briefly: T.b. brucei single concentration screen (10 μM). Particulars: Trypanosoma brucei, read-out: T.b.brucei % viability (10 µM).

As a reminder, the viability is a read-out of living cells in per cent, often relative to untreated cells. Consider `CCNC(=O)C(C)Nc1nc(-c2cccnc2)nc2sc(C)c(C)c12` (stereo not shown) [MMV1037162, CCNC(=O)C(C)Nc1nc(nc2sc(C)c(C)c12)c3cccnc3], for which the viability at 10 µM stood at 85%.
Take `COc1cc(C(F)(F)F)nc2ccc(C)c(N)c12` [MMV047015, COc1cc(nc2ccc(C)c(N)c12)C(F)(F)F]: the viability at 10 µM turned out to be 113%.
For the molecule `Cc1nn(C)cc1C(C)Nc1nncc(-c2ccc(C(F)(F)F)cc2)n1` (stereo not shown) [MMV019993, CC(Nc1nncc(n1)c2ccc(cc2)C(F)(F)F)c3cn(C)nc3C], the viability at 10 µM turned out to be 104%.
Turning to `CCCn1c(CNc2ccccc2O)nc2ccccc21` [MMV676445, CCCn1c(CNc2ccccc2O)nc3ccccc13], the viability at 10 µM amounted to 109%.
The same measure for `Cc1ccc(Oc2ccc(NC(=O)CNc3ccccc3N3CCCC3=O)cc2)cc1` [MMV020512, Cc1ccc(Oc2ccc(NC(=O)CNc3ccccc3N4CCCC4=O)cc2)cc1]: 95%; for `OCc1ccc(-c2cncc(Nc3cccc(Cl)c3)c2)cc1` [MMV026468, OCc1ccc(cc1)c2cncc(Nc3cccc(Cl)c3)c2]: 88%; for `Cc1ccc2[nH]c3c(NCCN(C)C)ncnc3c2c1` [MMV006372, CN(C)CCNc1ncnc2c3cc(C)ccc3[nH]c12]: 86%.
Then `O=C(NCc1ccco1)N1CCN(Cc2ccc(Cl)s2)CC1` [MMV688555, Clc1ccc(CN2CCN(CC2)C(=O)NCc3occc3)s1], with 103%; and `CN1CCN(c2nccc3nc(-c4ccc(F)c(F)c4)[nH]c23)CC1` [MMV676260, CN1CCN(CC1)c2nccc3nc([nH]c23)c4ccc(F)c(F)c4], with 49%.
For the molecule `Cc1nnc(NCc2cccc(Cl)c2)c2ccccc12` [MMV676555, Cc1nnc(NCc2cccc(Cl)c2)c3ccccc13], the viability at 10 µM is 97%.
The same measure for `CCC(C)NC(=O)c1ccc(NC(=O)C2(c3ccccc3)CCCC2)cc1` (stereo not shown) [MMV146306, CCC(C)NC(=O)c1ccc(NC(=O)C2(CCCC2)c3ccccc3)cc1]: 69%; for `Cc1ccc(S(=O)(=O)N2CCN(C(=O)c3cc(-c4ccccc4)[nH]n3)CC2)cc1` [MMV019742, Cc1ccc(cc1)S(=O)(=O)N2CCN(CC2)C(=O)c3cc([nH]n3)c4ccccc4]: 96%; for `COc1cc(Br)cc2cc(C(=O)Nc3cccc(C(F)(F)F)c3)c(=O)oc12` [MMV688891, COc1cc(Br)cc2C=C(C(=O)Nc3cccc(c3)C(F)(F)F)C(=O)Oc12]: 96%.
Then `COc1cc(C2=NCCN2)cc2cc(-c3ccc(C4=NCCN4)cc3)oc12` [MMV688362, COc1cc(cc2cc(oc12)c3ccc(cc3)C4=NCCN4)C5=NCCN5], with 35%; and `CCCc1ccc(S(=O)(=O)Nc2ccc(CN3CCN(CC4CC4)CC3)cc2)cc1` [MMV688125, CCCc1ccc(cc1)S(=O)(=O)Nc2ccc(CN3CCN(CC4CC4)CC3)cc2], with 72%.
Then `O=C(NC1CC1)c1ccc(CSCc2ccccc2Cl)o1` [MMV007803, Clc1ccccc1CSCc2oc(cc2)C(=O)NC3CC3], with 101%; and `COc1ccc(CN2CCOc3ccc(C(C)(O)CN(C)C)cc3C2)cc1C` (stereo not shown) [MMV008439, COc1ccc(CN2CCOc3ccc(cc3C2)C(C)(O)CN(C)C)cc1C], with 94%.
For the molecule `Nc1nc(N)c2c3c(sc2n1)CN(Cc1ccccc1)CC3` [MMV688345, Nc1nc(N)c2c3CCN(Cc4ccccc4)Cc3sc2n1], the viability at 10 µM was 110%.
For the molecule `Cc1ccc(NC(=O)c2cc(S(=O)(=O)NC(C)(C)C)ccc2C)nc1` [MMV020289, Cc1ccc(NC(=O)c2cc(ccc2C)S(=O)(=O)NC(C)(C)C)nc1], the viability at 10 µM stood at 93%.
Then `Cc1cc(C)n(-c2ccc(NC(=O)C3CCN(Cc4cnc(C)s4)CC3)cc2)n1` [MMV007625, Cc1cc(C)n(n1)c2ccc(NC(=O)C3CCN(Cc4cnc(C)s4)CC3)cc2], with 65%; and `CO[C@@H]1CN(c2ccc(C#CC3(O)CN4CCC3CC4)c(Cc3ccccc3)n2)C[C@H]1O` (stereo partly shown) [MMV688415, CO[C@@H]1CN(C[C@H]1O)c2ccc(C#CC3(O)CN4CCC3CC4)c(Cc5ccccc5)n2], with 99%.
Then `Cc1ccc(S(=O)(=O)n2cc(-c3ccnc(N)c3)c3cc(Br)cnc32)cc1` [MMV024114, Cc1ccc(cc1)S(=O)(=O)n2cc(c3ccnc(N)c3)c4cc(Br)cnc24], with 52%; and `CCOc1ccc2cc(-c3nn(CC4CCN(C)CC4)c4ncnc(N)c34)ccc2c1` [MMV688854, CCOc1ccc2cc(ccc2c1)c3nn(CC4CCN(C)CC4)c5ncnc(N)c35], with 33%; and `CCCCc1ccc(NC(=O)Nc2ccc(O[C@H]3CCCC[C@@H]3N(C)c3ccccc3)c(F)c2)cc1` [MMV676063, CCCCc1ccc(NC(=O)Nc2ccc(O[C@H]3CCCC[C@@H]3N(C)c4ccccc4)c(F)c2)cc1], with 91%.
`CS(=O)(=O)c1cccc(-c2cnc3[nH]cc(-c4ccc(CCC(=O)O)cc4)c3c2)c1` [MMV026020, CS(=O)(=O)c1cccc(c1)c2cnc3[nH]cc(c4ccc(CCC(=O)O)cc4)c3c2]: the viability at 10 µM was 61%.
The same measure for `FC(F)(F)c1cc(NCCc2ccccc2)nc(-c2ccccn2)n1` [MMV659010, FC(F)(F)c1cc(NCCc2ccccc2)nc(n1)c3ccccn3]: 82%; for `CC(C)(C)OC(=O)N1CCC(Cn2nc(-c3cnc4ccccc4c3)c3c(N)ncnc32)CC1` [MMV688364, CC(C)(C)OC(=O)N1CCC(Cn2nc(-c3cnc4ccccc4c3)c3c(N)ncnc23)CC1]: 102%; for `CS(=O)(=O)Cc1nc2ccccc2oc1=O` [MMV553002, CS(=O)(=O)CC1=Nc2ccccc2OC1=O]: 114%.
Then `CC1=NN(c2nc3ccccc3s2)C(=O)C1Cc1cccc2ccccc12` (stereo not shown) [MMV676558, CC1=NN(C(=O)C1Cc2cccc3ccccc23)c4nc5ccccc5s4], with 45%; and `O=S(=O)(c1ccc(Cl)cc1)N1CCN(C(=S)NCc2ccco2)CC1` [MMV000858, Clc1ccc(cc1)S(=O)(=O)N2CCN(CC2)C(=S)NCc3occc3], with 97%; and `Cc1cccc(-c2nc(Nc3ccncn3)c3sccc3n2)n1` [MMV688122, Cc1cccc(n1)c2nc(Nc3ccncn3)c4sccc4n2], with 85%.
As for `Cc1ccc2nc(Cl)c(CNCc3cccs3)cc2c1` [MMV676439, Cc1ccc2nc(Cl)c(CNCc3cccs3)cc2c1], the viability at 10 µM is 99%.
Then `CS(=O)(=O)N1CCC(Cn2nc(Cc3cccc4ccccc34)c3c(N)ncnc32)CC1` [MMV676050, CS(=O)(=O)N1CCC(Cn2nc(Cc3cccc4ccccc34)c5c(N)ncnc25)CC1], with 117%; and `COC(=O)c1cccc2oc(-c3cccc(OC)c3NC(=O)c3cc(-c4ccccc4)on3)nc12` [MMV676186, COC(=O)c1cccc2oc(nc12)c3cccc(OC)c3NC(=O)c4cc(on4)c5ccccc5], with 90%.
The same measure for `Nc1ncnc2[nH]nc(Cc3cccc4ccccc34)c12` [MMV688469, Nc1ncnc2[nH]nc(Cc3cccc4ccccc34)c12]: 98%.
With `O=C(Nc1c(O)cccc1-c1nc2c(C(=O)O)cccc2o1)c1cc(-c2ccccc2)on1` [MMV676008, OC(=O)c1cccc2oc(nc12)c3cccc(O)c3NC(=O)c4cc(on4)c5ccccc5], the viability at 10 µM is 110%.
Then `CC1CC1C(=O)NC1CCN(CC2(c3ccccc3)CCCCC2)CC1` (stereo not shown) [MMV020120, CC1CC1C(=O)NC2CCN(CC3(CCCCC3)c4ccccc4)CC2], with 109%; and `COc1ccc(-c2cncc3ccc(C(=O)NCCCn4ccnc4)nc23)cc1` [MMV020670, COc1ccc(cc1)c2cncc3ccc(nc23)C(=O)NCCCn4ccnc4], with 51%.
With `CCN(CC)CCCN1CCN(C(=O)c2cccc(-c3noc(C(F)(F)F)n3)c2)CC1` [MMV022236, CCN(CC)CCCN1CCN(CC1)C(=O)c2cccc(c2)c3noc(n3)C(F)(F)F], the viability at 10 µM is 103%.
For `O=C(c1ccco1)N(CCCn1ccnc1)c1nc2c(Cl)cccc2s1` [MMV688936, Clc1cccc2sc(nc12)N(CCCn3ccnc3)C(=O)c4occc4], the viability at 10 µM was found to be 92%.
With `OC[C@H]1O[C@@H](n2c3ccc(Cl)cc3c3c(-c4cc5ccccc5o4)ncnc32)C(O)[C@H]1O` (stereo partly shown) [MMV688921, OC[C@H]1O[C@H](C(O)[C@H]1O)n2c3ccc(Cl)cc3c4c(ncnc24)c5oc6ccccc6c5], the viability at 10 µM came to 97%.
Then `O=C(NC1=NCCS1)c1sc2cc(F)ccc2c1Cl` [MMV676584, Fc1ccc2c(Cl)c(sc2c1)C(=O)NC3=NCCS3], with 82%.
Then `CN(C(=O)c1cc2c(-c3cncnc3)cccc2[nH]1)c1ccccc1` [MMV024443, CN(C(=O)c1cc2c(cccc2[nH]1)c3cncnc3)c4ccccc4], with 59%; and `COc1ccc2nc(C)cc(OCC(=O)Nc3ccccc3OC)c2c1` [MMV687188, COc1ccc2nc(C)cc(OCC(=O)Nc3ccccc3OC)c2c1], with 92%.
Then `N#Cc1nc(-c2ccccc2)oc1S(=O)(=O)c1ccc(Cl)cc1` [MMV676412, Clc1ccc(cc1)S(=O)(=O)c2oc(nc2C#N)c3ccccc3], with 28%; and `CC(=O)Nc1ccc(NC(=O)c2cc(-c3cc(Cl)ccc3O)[nH]n2)cc1` [MMV676380, CC(=O)Nc1ccc(NC(=O)c2cc([nH]n2)c3cc(Cl)ccc3O)cc1], with 78%.
For the molecule `N#Cc1ccc(-c2ccc(OCC(N)=O)cc2)cc1` [MMV053220, NC(=O)COc1ccc(cc1)c2ccc(cc2)C#N], the viability at 10 µM was 68%.
The same measure for `COc1ccc(Oc2ccc([C@@H](C)N(C)c3ncc4c(N)nc(N)nc4n3)cc2)cc1` [MMV690102, COc1ccc(Oc2ccc(cc2)[C@@H](C)N(C)c3ncc4c(N)nc(N)nc4n3)cc1]: 42%; for `Cc1nc(-c2ccccn2)nc(N(C)CCc2ccccc2)c1Cl` [MMV658988, CN(CCc1ccccc1)c2nc(nc(C)c2Cl)c3ccccn3]: 95%.
The same measure for `CC(C)(C)n1nc(-c2ccccc2)c2c(N)ncnc21` [MMV688548, CC(C)(C)n1nc(-c2ccccc2)c2c(N)ncnc12]: 81%; for `CC(C(=O)Nc1ccc2oc(-c3ccncc3)nc2c1)c1ccccc1` (stereo not shown) [MMV688471, CC(C(=O)Nc1ccc2oc(nc2c1)-c1ccncc1)c1ccccc1]: 67%.
For the molecule `c1csc(-c2cnc3sc(NCC4CCOCC4)nn23)c1` [MMV010764, C(Nc1nn2c(cnc2s1)c3cccs3)C4CCOCC4], the viability at 10 µM came out at 94%.
